Source: US20110027226A1, “INDOLOPYRIDINES AS INHIBITORS OF THE KINESIN SPINDLE PROTEIN (EG5)” (4SC AG, priority 2007, published 2011)

Legend:
[1] = tested on: RKO human colon adenocarcinoma cells (RKOp27 subclone, uninduced, proliferating); assay: Alamar Blue cell viability assay, anti-proliferative/cytotoxic activity, RKO p27 uninduced (proliferating); type: cell-based; settings: 72 hours incubation, read-out: −log EC50 [mol/l] RKO p27 uninduced (proliferating) (converted)
Description: The compounds are dissolved as 10 mM solutions in DMSO and subsequently diluted in semi-logarithmic steps. DMSO dilutions are further diluted 1:100 v:v into Dulbecco's modified Eagle's medium (DMEM) containing 10% fetal calf serum to a final concentration twice as much as the final concentration in the test. RKO subclones are seeded into 96 well flat bottom plates at a density of 4000 cells per well in a volume of 50 μl per well. 24 hours after seeding the 50 μl each of the compound dilutions in DMEM medium are added into each well of the 96 well plate. Each compound dilution is tested as triplicates. Wells containing untreated control cells are filled with 50 μl DMEM medium containing 1% DMSO. The cells are then incubated with the substances for 72 hours at 37° C. in a humidified atmosphere containing 5% carbon dioxide. To determine the viability of the cells, 10 μl of an Alamar Blue solution (Biosource) are added and the fluorescence is measured at an extinction of 544 nm and an emission of 590 nm. For the calculation of the cell viability the emission value from untreated cells is set as 100% viability and the emission rates of treated cells are set in relation to the values of untreated cells. Viabilities are expressed as % values. The Graphpad Prism program is used for the calculation of EC50 values for anti-proliferative/cytotoxic activity out of the obtained dose-response curves.
Each compound dilution is tested as triplicates. Wells containing untreated control cells are filled with 50 μl DMEM medium containing 1% DMSO. The cells are then incubated with the substances for 72 hours at 37° C. in a humidified atmosphere containing 5% carbon dioxide. To determine the viability of the cells, 10 μl of an Alamar Blue solution (Biosource) are added and the fluorescence is measured at an extinction of 544 nm and an emission of 590 nm. For the calculation of the cell viability the emission value from untreated cells is set as 100% viability and the emission rates of treated cells are set in relation to the values of untreated cells. Viabilities are expressed as % values. The Graphpad Prism program (GraphPad Software, Inc) is used for the calculation of EC50 values out of the obtained dose-response curves. Viability is compared of proliferating cells grown in the absence of the inducer Ponasterone A, versus viability of cells arrested by the expression of ectopic p27Kip1 induced by Ponasterone A.

| SMILES | EC50 [1] [nM] | melting point [°C] |
| --- | --- | --- |
| Cc1ccc2[nH]c3c(c2c1)C[C@H]1C(=O)N(C)C(=O)N1[C@@H]3c1cccc(O)c1 (racemic) [Example 4, (3aSR,10RS)-10-(3-Hydroxy-phenyl)-2,6-dimethyl-3a,4,9,10-tetrahydro-2,9,10a-triaza-cyclopenta[b]fluorene-1,3-dione] | ≤ 1000 |  |
| Cc1cccc2[nH]c3c(c12)C[C@H]1C(=O)N(C)C(=O)N1[C@@H]3c1cccc(O)c1 (racemic) [Example 5, (3aSR,10RS)-10-(3-Hydroxy-phenyl)-2,5-dimethyl-3a,4,9,10-tetrahydro-2,9,10a-triaza-cyclopenta[b]fluorene-1,3-dione] | ≤ 1000 | 348 to 352 |
| Cc1ccc2c3c([nH]c2c1)[C@@H](c1cccc(O)c1)N1C(=O)N(C)C(=O)[C@@H]1C3 (racemic) [Example 6, (3aSR,10RS)-10-(3-Hydroxy-phenyl)-2,7-dimethyl-3a,4,9,10-tetrahydro-2,9,10a-triaza-cyclopenta[b]fluorene-1,3-dione] |  | 282 to 285 |
| CN1C(=O)[C@@H]2Cc3c([nH]c4ccc(Br)cc34)[C@@H](c3cccc(O)c3)N2C1=O (racemic) [Example 3, (3aSR,10RS)-6-Bromo-10-(3-hydroxy-phenyl)-2-methyl-3a,4,9,10-tetrahydro-2,9,10a-triaza-cyclopenta[b]fluorene-1,3-dione] | ≤ 1000 |  |
| COc1ccc2[nH]c3c(c2c1)C[C@H]1C(=O)N(C)C(=O)N1[C@@H]3c1cccc(O)c1 (racemic) [Example 7, (3aSR,10RS)-10-(3-Hydroxy-phenyl)-6-methoxy-2-methyl-3a,4,9,10-tetrahydro-2,9,10a-triaza-cyclopenta[b]fluorene-1,3-dione] | ≤ 1000 | 172 to 175 |
| CN1C(=O)[C@@H]2Cc3c([nH]c4cc(F)ccc34)[C@@H](c3cccc(O)c3)N2C1=O (racemic) [Example 2, (3aSR,10RS)-7-Fluoro-10-(3-hydroxy-phenyl)-2-methyl-3a,4,9,10-tetrahydro-2,9,10a-triaza-cyclopenta[b]fluorene-1,3-dione] | ≤ 1000 | 279 to 283 |
